Structures are written as SMILES.

This experiment addresses T1, Autotaxin (Homo sapiens, UniProt Q13822).
T1 construct: purchased X-Chem
Kind of experiment: Autotaxin LPC Cascade Assay. The class given is biochemical. The following applies: 5 nM autotaxin, 100 μM LPC, choline oxidase/HRP/Ampliflu Red fluorescence readout; read-out: IC50 ATX activity values, IC50. As for the experimental part: Autotaxin LPC Cascade Assay
HA130 and Test Compounds:
Highest final concentration is […] for HA130 (Echelon, B-0701) and 30 μM for test compounds. Prepare a 1 mM stock of HA130 and a 3 mM stock of each compound in 100% DMSO. Perform a 1:3 serial dilution in DMSO (transfer 5 μl of compound to 10 μl of DMSO). Add 240 μl of buffer to generate a top working concentration of 40 µM (HA130) and 120 µM (test compound) in 4% DMSO.
Ampliflu Red—Prepare a stock of 5 mM from 100 mM in 100% DMSO. Further dilute to a working concentration of 400 μM in buffer (8% DMSO).
Together with compound this yields a 2% DMSO final concentration.
Choline Oxidase/HRP—0.8 U/ml CO and 8 U/ml HRP.
Add 5 μl of ATX and 5 μl of compound in a 384 well plate (Corning 3676). Incubate for 10 mins at RT. Add 5 μl of LPC and incubate for 1 hr on the plate shaker. Prepare the CO/HRP and AR prior to use. Add 2.5 μl of CO/HRP and follow with 2.5 μl AR. Note order of addition, CO/HRP mix before AR. Read fluorescence intensity (λex/λem: 530/590 nm) kinetically for 30 min at RT on the Tecan M1000.

A word on the IC50: it is the concentration that gives 50% inhibition. As to `CC(C)[C@@H](NC(=O)c1cccc(OC(F)(F)F)c1)C(=O)N1CCC(C)(NCc2ccc(S(C)(=O)=O)cc2)CC1` [Example 41, (R)—N-(3-Methyl-1-(4-methyl-4-((4-(methylsulfonyl)benzyl)amino)piperidin-1-yl)-1-oxobutan-2-yl)-3-(trifluoromethoxy)benzamide], the half-maximal inhibitory concentration (IC50) was 0.1 to 0.5 µM.

`CC(C)[C@@H](NC(=O)c1cc(OC(F)(F)F)ccc1F)C(=O)N1CCC(C)(NC(=O)c2ccc(S(C)(=O)=O)cc2)CC1` [Example 37, (R)-2-Fluoro-N-(3-methyl-1-(4-methyl-4-(4-(methylsulfonyl)benzamido)piperidin-1-yl)-1-oxobutan-2-yl)-5-(trifluoromethoxy)benzamide]: the IC50 was in the range of 0.5 to 5 µM.

In the case of `CC(C)[C@@H](NC(=O)c1cccc(OC(F)(F)F)c1)C(=O)N1CCC(C)(Nc2ccc(C(=O)O)cc2)CC1` [Example 9, (R)-4-((4-Methyl-1-(3-methyl-2-(3-(trifluoromethoxy)benzamido)butanoyl)piperidin-4-yl)amino)benzoic acid], the IC50 was 0.1 to 0.5 µM.

Consider `CC(C)[C@@H](NC(=O)c1cc(C(F)(F)F)ccc1F)C(=O)N1CCC(Nc2ccc3[nH]ncc3c2)CC1` [Example 23, (R)—N-(1-(4-(1H-Indazol-5-ylamino)piperidin-1-yl)-3-methyl-1-oxobutan-2-yl)-2-fluoro-5-(trifluoromethyl)benzamide], for which the IC50 lay in the range of 5 to 10 µM.

Regarding `COc1ccc(CNC2(C)CCN(C(=O)[C@H](NC(=O)c3cc(OC(F)(F)F)ccc3F)C(C)C)CC2)cc1` [Example 40, (R)-2-Fluoro-N-(1-(4-((4-methoxybenzyl)amino)-4-methylpiperidin-1-yl)-3-methyl-1-oxobutan-2-yl)-5-(trifluoromethoxy)benzamide], the IC50 is 0.1 to 0.5 µM.

For the compound `COCC1(Nc2ccccc2)CCN(C(=O)[C@H](NC(=O)c2cccc(C)c2)C(C)C)CC1` [Example 17, (R)—N-(1-(4-(Methoxymethyl)-4-(phenylamino)piperidin-1-yl)-3-methyl-1-oxobutan-2-yl)-3-methylbenzamide], the 50% inhibitory concentration (IC50) was no less than 10 µM.

Turning to `CC(C)[C@@H](NC(=O)c1cc(OC(F)(F)F)ccc1F)C(=O)N1CCC(C)(Nc2ccccc2)CC1` [Example 10, (R)-2-Fluoro-N-(3-methyl-1-(4-methyl-4-(phenylamino)piperidin-1-yl)-1-oxobutan-2-yl)-5-(trifluoromethoxy)benzamide], the IC50 was 0.1 to 0.5 µM.

For `CCc1ccc(F)c(C(=O)N[C@@H](C(=O)N2CCC(Oc3ccc(S(C)(=O)=O)cc3)(C(=O)NC)CC2)C(C)C)c1` [Example 15, (R)-1-(2-(5-Ethyl-2-fluorobenzamido)-3-methylbutanoyl)-N-methyl-4-(4-(methylsulfonyl)phenoxy)piperidine-4-carboxamide], the IC50 was 0.5 to 5 µM.

For `CNC(=O)C1(Oc2ccccc2)CCN(C(=O)[C@H](NC(=O)c2cccc(C)c2F)C(C)C)CC1` [Example 14, (R)-1-(2-(2-Fluoro-3-methylbenzamido)-3-methylbutanoyl)-N-methyl-4-phenoxypiperidine-4-carboxamide], the half-maximal inhibitory concentration (IC50) was in the range of 0.5 to 5 µM.

In the case of `CC(C)[C@@H](NC(=O)c1cc(-c2ccccc2)ccc1F)C(=O)N1CCC(C)(Nc2ccc(S(C)(=O)=O)cc2)CC1` [Example 32, (R)-4-Fluoro-N-(3-methyl-1-(4-methyl-4-(4-(methylsulfonyl)phenylamino)piperidin-1-yl)-1-oxobutan-2-yl)biphenyl-3-carboxamide], the IC50 lay within 0.1 to 0.5 µM.

For the compound `CC(C)[C@@H](NC(=O)c1cc(OC(F)(F)F)ccc1F)C(=O)N1CCC(C)(NCc2ccc(S(C)(=O)=O)cc2)CC1` [Example 39, (R)-2-Fluoro-N-(3-methyl-1-(4-methyl-4-((4-(methylsulfonyl)benzyl)amino)piperidin-1-yl)-1-oxobutan-2-yl)-5-(trifluoromethoxy)benzamide], the IC50 was 0.01 to 0.1 µM.

For the compound `CC(C)[C@@H](NC(=O)c1cc(OC(F)(F)F)ccc1F)C(=O)N1CCC(C)(Nc2ccc(S(C)(=O)=O)cc2)CC1` [Example 6, (R)-2-Fluoro-N-(3-methyl-1-(4-methyl-4-(4-(methylsulfonyl)phenylamino)piperidin-1-yl)-1-oxobutan-2-yl)-5-(trifluoromethoxy)benzamide], the IC50 is 0.01 to 0.1 µM.

For `CC1(Nc2ccc(S(C)(=O)=O)cc2)CCN(C(=O)[C@H](NC(=O)c2cc(OC(F)(F)F)ccc2F)C2CC2)CC1` [Example 13, (R)—N-(1-Cyclopropyl-2-(4-methyl-4-((4-(methylsulfonyl)phenyl)amino)piperidin-1-yl)-2-oxoethyl)-2-fluoro-5-(trifluoromethoxy)benzamide], the IC50 fell in the range of 0.1 to 0.5 µM.

As for `CCc1ccc(F)c(C(=O)N[C@@H](C(=O)N2CCC(C)(CNc3ccc(S(C)(=O)=O)cc3)CC2)C(C)C)c1` [Example 35, (R)-5-Ethyl-2-fluoro-N-(3-methyl-1-(4-methyl-4-((4-(methylsulfonyl)phenylamino)methyl)piperidin-1-yl)-1-oxobutan-2-yl)benzamide], the IC50 fell in the range of 0.1 to 0.5 µM.

As for `Cc1cccc(C(=O)N[C@@H](C(=O)N2CCC(C)(Nc3ccc(S(C)(=O)=O)cc3)CC2)C(C)C)c1F` [Example 3, (R)-2-Fluoro-3-methyl-N-(3-methyl-1-(4-methyl-4-(4-(methylsulfonyl)phenylamino)piperidin-1-yl)-1-oxobutan-2-yl)benzamide], the IC50 lay within 0.5 to 5 µM.

Turning to `CC(C)[C@H](NC(=O)c1cccc(OC(F)(F)F)c1)C(=O)N1CCC(C)(NCc2ccc(S(C)(=O)=O)cc2)CC1` [Example 42, (S)—N-(3-Methyl-1-(4-methyl-4-((4-(methylsulfonyl)benzyl)amino)piperidin-1-yl)-1-oxobutan-2-yl)-3-(trifluoromethoxy)benzamide], the half-maximal inhibitory concentration (IC50) is 0.5 to 5 µM.

For the compound `CCc1ccc(F)c(C(=O)N[C@@H](C(=O)N2CCC(C)(Nc3ccc(CS(C)(=O)=O)cc3)CC2)C(C)C)c1` [Example 26, (R)-5-Ethyl-2-fluoro-N-(3-methyl-1-(4-methyl-4-(4-(methylsulfonylmethyl)phenylamino)piperidin-1-yl)-1-oxobutan-2-yl)benzamide], the IC50 was in the range of 0.01 to 0.1 µM.

Take `CC(C)[C@@H](NC(=O)c1cc(OC(F)(F)F)ccc1F)C(=O)N1CCC(C)(Nc2ccc(C(=O)O)cc2)CC1` [Example 11, (R)-4-((1-(2-(2-Fluoro-5-(trifluoromethoxy)benzamido)-3-methylbutanoyl)-4-methylpiperidin-4-yl)amino)benzoic acic]: the IC50 is 0.1 to 0.5 µM.

For the compound `CCc1ccc(F)c(C(=O)N[C@@H](C(=O)N2CCC(C#N)(Nc3ccc(S(C)(=O)=O)cc3)CC2)C(C)C)c1` [Example 18, (R)—N-(1-(4-Cyano-4-(4-(methylsulfonyl)phenylamino)piperidin-1-yl)-3-methyl-1-oxobutan-2-yl)-5-ethyl-2-fluorobenzamide], the IC50 was 0.5 to 5 µM.

Turning to `CC(C)[C@@H](NC(=O)c1cccc(OC(F)(F)F)c1)C(=O)N1CCC(C)(Nc2ccccc2)CC1` [Example 7, (R)—N-(3-Methyl-1-(4-methyl-4-(phenylamino)piperidin-1-yl)-1-oxobutan-2-yl)-3-(trifluoromethoxy)benzamide], the IC50 fell in the range of 0.5 to 5 µM.

Consider `Cc1cccc(C(=O)N[C@@H](C(=O)N2CCC(C)(Nc3cccc(C#N)c3)CC2)C(C)C)c1F` [Example 2, (R)—N-(1-(4-(3-Cyanophenylamino)-4-methylpiperidin-1-yl)-3-methyl-1-oxobutan-2-yl)-2-fluoro-3-methylbenzamide], for which the IC50 lay within 5 to 10 µM.

`CCc1ccc(F)c(C(=O)N[C@@H](C(=O)N2CCC(C)(Nc3ccc(S(C)(=O)=O)cc3)CC2)C(C)C)c1` [Example 4, (R)-5-Ethyl-2-fluoro-N-(3-methyl-1-(4-methyl-4-(4-(methylsulfonyl)phenylamino)piperidin-1-yl)-1-oxobutan-2-yl)benzamide]: the IC50 is 0.01 to 0.1 µM.

As for `COc1ccc(F)c(C(=O)N[C@@H](C(=O)N2CCC(C)(Nc3ccc(S(C)(=O)=O)cc3)CC2)C(C)C)c1` [Example 5, (R)-2-Fluoro-5-methoxy-N-(3-methyl-1-(4-methyl-4-(4-(methylsulfonyl)phenylamino)piperidin-1-yl)-1-oxobutan-2-yl)benzamide], the IC50 fell in the range of 0.5 to 5 µM.

Turning to `CC(C)[C@@H](NC(=O)c1cc(C2CC2)ccc1F)C(=O)N1CCC(C)(Nc2ccc(S(C)(=O)=O)cc2)CC1` [Example 33, (R)-5-Cyclopropyl-2-fluoro-N-(3-methyl-1-(4-methyl-4-(4-(methylsulfonyl)phenylamino)piperidin-1-yl)-1-oxobutan-2-yl)benzamide], the IC50 is 0.1 to 0.5 µM.

Take `CC1CCc2cc(F)c(C(=O)N[C@@H](C(=O)N3CCC(C)(Nc4ccc(S(C)(=O)=O)cc4)CC3)C(C)C)cc21` (stereo partly drawn) [Example 25, 6-Fluoro-3-methyl-N—((R)-3-methyl-1-(4-methyl-4-(4-(methylsulfonyl)phenylamino)piperidin-1-yl)-1-oxobutan-2-yl)-2,3-dihydro-1H-indene-5-carboxamide]: the IC50 was 0.1 to 0.5 µM.

For `CC(C)[C@@H](NC(=O)c1cc(OC(F)F)ccc1F)C(=O)N1CCC(C)(Nc2ccc(S(C)(=O)=O)cc2)CC1` [Example 28, (R)-5-(Difluoromethoxy)-2-fluoro-N-(3-methyl-1-(4-methyl-4-(4-(methylsulfonyl)phenylamino)piperidin-1-yl)-1-oxobutan-2-yl)benzamide], the IC50 fell in the range of 0.1 to 0.5 µM.
